Results reported in ChEMBL document CHEMBL1201862, “PubChem BioAssay data set” (2004).
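Dose response: 5 concentrations. Exposure: 48 h. Format: 96-well plates. Endpoint: linear interpolation; highest concentration if not reached. Abbreviation: GI50, concentration required for 50% inhibition of growth.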 Activity calls are given as the source filed them. Rule as the data show it: active = GI50 up to about 1.1 µM and inactive = higher.

How the values were obtained:
Experiment in all cases: NCI tumour cell line growth inhibition, 48 h
ACHN = system: ACHN
CAKI-1 = system: CAKI-1
COLO 205 = system: COLO 205
DU-145 = system: DU-145
HCC 2998 = system: HCC 2998
HCT-116 = system: HCT-116
HOP-62 = system: HOP-62
Hs-578T = system: Hs-578T
MCF7 = system: MCF7
MDA-MB-435 = system: MDA-MB-435
MOLT-4 = system: MOLT-4
NCI-H226 = system: NCI-H226
NCI-H460 = system: NCI-H460
OVCAR-4 = system: OVCAR-4
OVCAR-5 = system: OVCAR-5
SF-295 = system: SF-295
SK-MEL-5 = system: SK-MEL-5
TK-10 = system: TK-10
UACC-257 = system: UACC-257
UACC-62 = system: UACC-62

SMILES | GI50 (ACHN) | GI50 (CAKI-1) | GI50 (COLO 205) | GI50 (DU-145) | GI50 (HCC 2998) | GI50 (HCT-116) | GI50 (HOP-62) | GI50 (Hs-578T) | GI50 (MCF7) | GI50 (MDA-MB-435) | GI50 (MOLT-4) | GI50 (NCI-H226) | GI50 (NCI-H460) | GI50 (OVCAR-4) | GI50 (OVCAR-5) | GI50 (SF-295) | GI50 (SK-MEL-5) | GI50 (TK-10) | GI50 (UACC-257) | GI50 (UACC-62)
C=CC(OC(C)=O)c1ccc(OC(=O)C(C)C)c(OC)c1 (stereo not given) | 3.34 µM (inactive) | 1.77 µM (inactive) | 2.49 µM (inactive) | 11.5 µM (inactive) | 11.2 µM (inactive) | 5.85 µM (inactive) | 10.2 µM (inactive) | 6.64 µM (inactive) | 2.36 µM (inactive) | 5.73 µM (inactive) | 9.02 µM (inactive) | 19.6 µM (inactive) | 11.4 µM (inactive) | 4.9 µM (inactive) | 2.51 µM (inactive) | 10.5 µM (inactive) | 15.3 µM (inactive) | 5.04 µM (inactive) | 9.86 µM (inactive) | 13.3 µM (inactive)
CCN(CC)c1ccc2cc(-c3csc(C)n3)c(=O)oc2c1 | 70.3 µM (inactive) | > 100 µM (inactive) | > 100 µM (inactive) | > 100 µM (inactive) | 58.5 µM (inactive) | 69.8 µM (inactive) | 30.6 µM (inactive) | 25.7 µM (inactive) | > 100 µM (inactive) | 42.9 µM (inactive) | > 100 µM (inactive) | 57.4 µM (inactive) | > 100 µM (inactive) | 34.6 µM (inactive) | > 100 µM (inactive) | 47 µM (inactive) | 37.9 µM (inactive) | 54.7 µM (inactive) | 77.8 µM (inactive) | 52.8 µM (inactive)
CN(C)C(=S)Oc1ccc2ccc(=O)oc2c1 | > 100 µM (inactive) | > 100 µM (inactive) | > 100 µM (inactive) | > 100 µM (inactive) | > 100 µM (inactive) | > 100 µM (inactive) | > 100 µM (inactive) | > 100 µM (inactive) | > 100 µM (inactive) | > 100 µM (inactive) | > 100 µM (inactive) | > 100 µM (inactive) | > 100 µM (inactive) | > 100 µM (inactive) | > 100 µM (inactive) | > 100 µM (inactive) | > 100 µM (inactive) | > 100 µM (inactive) | > 100 µM (inactive) | > 100 µM (inactive)
O=C(O)c1cc(-c2ccc3c(O)ccc(O)c3c2)ccc1O | 19.3 µM (inactive) | 16.6 µM (inactive) | 19.5 µM (inactive) | 24 µM (inactive) | 16.4 µM (inactive) | 16.8 µM (inactive) | 34.1 µM (inactive) | 18.7 µM (inactive) | 22.6 µM (inactive) | 17.5 µM (inactive) | 3.01 µM (inactive) | 19.7 µM (inactive) | 20.5 µM (inactive) | 16.5 µM (inactive) | 18.3 µM (inactive) | 18.2 µM (inactive) | 14.7 µM (inactive) | 20.3 µM (inactive) | 17.4 µM (inactive) | 18.2 µM (inactive)
CC(=O)OCc1cncn1S(=O)(=O)c1ccc(C)cc1 | > 100 µM (inactive) | > 100 µM (inactive) | 53.1 µM (inactive) | > 100 µM (inactive) | > 62.4 µM (inactive) | 25.6 µM (inactive) | > 100 µM (inactive) | > 78.5 µM (inactive) | > 25.4 µM (inactive) | 10.4 µM (inactive) | 32 µM (inactive) | > 100 µM (inactive) | 29.9 µM (inactive) | > 76.7 µM (inactive) | > 100 µM (inactive) | > 100 µM (inactive) | 24.2 µM (inactive) | > 100 µM (inactive) | > 100 µM (inactive) | > 91 µM (inactive)
[N-]=[N+]=NC1OC(=O)C(Cl)=C1N=P(c1ccccc1)(c1ccccc1)c1ccccc1 (stereo not given) | 8.63 µM (inactive) | > 10 µM (inactive) | 9.27 µM (inactive) | > 10 µM (inactive) | > 10 µM (inactive) | 6.37 µM (inactive) | > 10 µM (inactive) | > 10 µM (inactive) | 7.13 µM (inactive) | 8.17 µM (inactive) | 3.01 µM (inactive) | > 10 µM (inactive) | > 10 µM (inactive) | 9.71 µM (inactive) | > 10 µM (inactive) | 7.24 µM (inactive) | > 10 µM (inactive) | > 10 µM (inactive) | > 10 µM (inactive) | > 10 µM (inactive)
Cn1cc(NC(=O)c2cc(NC(=O)CNC(=N)N)cn2C)cc1C(=O)NCCC(=N)N [NETROPSIN CHLORIDE] | > 100 µM (inactive) | > 100 µM (inactive) | > 100 µM (inactive) | > 100 µM (inactive) | > 100 µM (inactive) | > 100 µM (inactive) | > 100 µM (inactive) | > 100 µM (inactive) | > 100 µM (inactive) | > 100 µM (inactive) | > 100 µM (inactive) | > 100 µM (inactive) | > 100 µM (inactive) | > 100 µM (inactive) | > 100 µM (inactive) | > 100 µM (inactive) | > 100 µM (inactive) | > 100 µM (inactive) | > 100 µM (inactive) | > 100 µM (inactive)
COC1C(CO)OC(n2c3c(Cl)cccc3c3c4c(c5c6cccc(Cl)c6[nH]c5c32)C(=O)NC4=O)C(O)C1O (stereo not given) | 0.113 µM (active) | 0.169 µM (active) | 0.351 µM (active) | 0.202 µM (active) | 0.367 µM (active) | 0.097 µM (active) | 0.177 µM (active) | 0.31 µM (active) | 0.1 µM (active) | 0.306 µM (active) | 0.0498 µM (active) | 0.187 µM (active) | 0.177 µM (active) | 0.337 µM (active) | 0.796 µM (active) | 0.286 µM (active) | 0.157 µM (active) | 0.47 µM (active) | 0.219 µM (active) | 0.113 µM (active)
O=C(/C=C/c1ccc(O)c(O)c1)c1ccc(O)cc1O [BUTEIN] | 18 µM (inactive) | 10.5 µM (inactive) | 14.5 µM (inactive) | 9.1 µM (inactive) | 17.1 µM (inactive) | 13 µM (inactive) | 17.4 µM (inactive) | 19.4 µM (inactive) | 3.98 µM (inactive) | 9.08 µM (inactive) | 7.64 µM (inactive) | 17.3 µM (inactive) | 15.2 µM (inactive) | 19.1 µM (inactive) | 17.4 µM (inactive) | 22.3 µM (inactive) | 11.6 µM (inactive) | 19.4 µM (inactive) | 15.6 µM (inactive) | 16.9 µM (inactive)
COc1cccc(/C=C2\CCC(CN(C)C)C2=O)c1 (stereo not given) | 11.8 µM (inactive) | 6.76 µM (inactive) | 4.35 µM (inactive) | 2.74 µM (inactive) | 10.8 µM (inactive) | 3.07 µM (inactive) | 12.1 µM (inactive) | 8.71 µM (inactive) | 2.25 µM (inactive) | 2.61 µM (inactive) | 1.44 µM (inactive) | 16.3 µM (inactive) | 16.2 µM (inactive) | 9.82 µM (inactive) | 12.1 µM (inactive) | 16.6 µM (inactive) | 9.82 µM (inactive) | 10.2 µM (inactive) | 3.85 µM (inactive) | 8.24 µM (inactive)
